For this assay, the target named is T1, GIPR (CHO-K1-hGIPR cells) (Homo sapiens, UniProt P48546).
T1 construct: host or cells: CHO-K1
T1 sequence (P48546 22-466): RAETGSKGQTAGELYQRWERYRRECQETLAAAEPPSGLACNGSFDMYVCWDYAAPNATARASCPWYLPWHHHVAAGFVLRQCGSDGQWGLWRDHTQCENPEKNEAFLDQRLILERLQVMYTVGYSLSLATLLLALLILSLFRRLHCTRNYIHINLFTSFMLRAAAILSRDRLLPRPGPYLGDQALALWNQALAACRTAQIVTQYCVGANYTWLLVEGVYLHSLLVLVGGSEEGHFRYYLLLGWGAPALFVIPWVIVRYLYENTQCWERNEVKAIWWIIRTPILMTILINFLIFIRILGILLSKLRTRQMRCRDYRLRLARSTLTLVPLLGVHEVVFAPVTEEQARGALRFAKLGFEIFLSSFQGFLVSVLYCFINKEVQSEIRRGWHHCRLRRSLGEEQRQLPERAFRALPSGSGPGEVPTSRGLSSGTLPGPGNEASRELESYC
Put plainly: FACS binding assay. The settings on record: competition with 20 nM GIP-057, 4° C. for 1 hour, read-out: pIC50 Category (converted). Summed up: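 Steps: detach CHO-K1-hGIPR cells (Accutase); wash in PBS/1% FCS; adjust to 500.000 cells per mL; wash ice-cold; incubate APC-streptavidin 1 μg/mL, 30 min on ice; wash twice; acquire on flow cytometer; fit MFI-concentration data with a four-parameter logistic model.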
(In general: A flow cytometer gives signals particle by particle.)

Each structure is given as a SMILES string. *1 amine or outer side, *2 acyl side, *3 side chain or, on linkers, in order; H or OH if unused. Where a SMILES comes first, the peptide text is derived from it. Bridges are numbered along the chain shown (N, C = ends). [ ]: non-standard residue; d: D form. The star is where a group is joined. X3 = O=C(O)CN1CCN(CC(=O)O)CCN(CC(=O)NCCCOCCOCCOCCCN*)CCN(CC(=O)O)CC1; Pro(trans-4-NH2) = O=C([C@@H]1C[C@@H](N[*:3])CN1[*:1])[*:2]; DOTA = O=C(O)CN1CCN(CC(=O)O)CCN(CC(=O)*)CCN(CC(=O)O)CC1; Trp(5-Cl) = N[C@@H](Cc1c[nH]c2ccc(Cl)cc12)C(=O)O; Pyridine(2,6-diCH2) = c1cc(C[*:1])nc(C[*:2])c1; Phe(2-Cl) = N[C@@H](Cc1ccccc1Cl)C(=O)O; 1Nal = N[C@@H](Cc1cccc2ccccc12)C(=O)O; mXylylene = c1cc(C[*:1])cc(C[*:2])c1; Hyp = O=C(O)[C@@H]1C[C@@H](O)CN1; Cha = N[C@@H](CC1CCCCC1)C(=O)O; Suc = O=C(CCC(=O)[*:2])[*:1]; hLeu = CC(C)CC[C@H](N)C(=O)O; Api = NC1(C(=O)O)CCNCC1; Thp = NC1(C(=O)O)CCOCC1; Aib = CC(C)(N)C(=O)O

From US20250296971A1, “GASTRIC INHIBITORY PEPTIDE RECEPTOR LIGANDS” (priority 2021, published 2025) come the findings set out here.

As to `CC[C@H](C)[C@@H]1NC(=O)[C@H](CC2CCCCC2)NC(=O)C2(CCOCC2)NC(=O)[C@@H](NC(=O)[C@@H](CC(C)C)NC(=O)[C@H](CCC(=O)O)NC(=O)[C@@H]2C[C@@H](O)CN2C(=O)[C@H](Cc2c[nH]c3ccc(Cl)cc23)NC(=O)[C@H](Cc2c[nH]c3ccccc23)NC(=O)[C@H](CC(=O)O)NC(C)=O)CSCc2cccc(n2)CSC[C@@H](C(N)=O)NC1=O` [GIP-383, Ac-Asp-Trp-5Clw-Hyp-Glu-leu-[Cys(2Lut)-Thp-Cha-Ile-Cys]-NH2] (Ac-DW[Trp(5-Cl)][Hyp]E[dL]C[Thp][Cha]IC-NH2; linker 7-11 via Pyridine(2,6-diCH2)), the IC50 was < 10 nM.

With `CC[C@H](C)[C@@H]1NC(=O)[C@H](CC(C)C)NC(=O)C2(CCOCC2)NC(=O)[C@@H](NC(=O)[C@@H](CC(C)C)NC(=O)[C@H](CO)NC(=O)[C@@H]2C[C@@H](O)CN2C(=O)[C@H](Cc2c[nH]c3ccc(Cl)cc23)NC(=O)[C@H](Cc2c[nH]c3ccccc23)NC(=O)[C@H](CC(=O)O)NC(C)=O)CSCc2cccc(n2)CSC[C@@H](C(N)=O)NC1=O` [GIP-384, Ac-Asp-Trp-5Clw-Hyp-Ser-leu-[Cys(2Lut)-Thp-Leu-Ile-Cys]-NH2] (Ac-DW[Trp(5-Cl)][Hyp]S[dL]C[Thp]LIC-NH2; linker 7-11 via Pyridine(2,6-diCH2)), the IC50 was < 10 nM.

With `CC[C@H](C)[C@@H]1NC(=O)[C@H](CC(C)C)NC(=O)C2(CCOCC2)NC(=O)[C@@H](NC(=O)[C@@H](CC(C)C)NC(=O)[C@@H](NC(=O)[C@@H]2C[C@@H](O)CN2C(=O)[C@H](Cc2c[nH]c3ccc(Cl)cc23)NC(=O)[C@H](Cc2c[nH]c3ccccc23)NC(=O)[C@H](CC(=O)O)NC(C)=O)C(C)C)CSCc2cccc(n2)CSC[C@@H](C(N)=O)NC1=O` [GIP-385, Ac-Asp-Trp-5Clw-Hyp-Val-leu-[Cys(2Lut)-Thp-Leu-Ile-Cys]-NH2] (Ac-DW[Trp(5-Cl)][Hyp]V[dL]C[Thp]LIC-NH2; linker 7-11 via Pyridine(2,6-diCH2)), the IC50 was < 10 nM.

For the compound `CC[C@H](C)[C@@H]1NC(=O)[C@H](CC(C)C)NC(=O)C2(CCOCC2)NC(=O)[C@@H](NC(=O)[C@@H](CC(C)C)NC(=O)[C@H](C)NC(=O)[C@@H]2C[C@@H](O)CN2C(=O)[C@H](Cc2c[nH]c3ccc(Cl)cc23)NC(=O)[C@H](Cc2c[nH]c3ccccc23)NC(=O)[C@H](CC(=O)O)NC(C)=O)CSCc2cccc(n2)CSC[C@@H](C(N)=O)NC1=O` [GIP-386, Ac-Asp-Trp-5Clw-Hyp-Ala-leu-[Cys(2Lut)-Thp-Leu-Ile-Cys]-NH2] (Ac-DW[Trp(5-Cl)][Hyp]A[dL]C[Thp]LIC-NH2; linker 7-11 via Pyridine(2,6-diCH2)), the IC50 was < 10 nM.

`CC[C@H](C)[C@@H]1NC(=O)[C@H](CC(C)C)NC(=O)C2(CCOCC2)NC(=O)[C@@H](NC(=O)[C@@H](CC(C)C)NC(=O)[C@H](CCC(=O)O)NC(=O)[C@@H]2C[C@@H](O)CN2C(=O)[C@H](Cc2c[nH]c3ccc(Cl)cc23)NC(=O)[C@H](Cc2ccccc2Cl)NC(=O)[C@H](CC(=O)O)NC(=O)CCC(=O)NCCCOCCOCCOCCCNC(=O)CN2CCN(CC(=O)O)CCN(CC(=O)O)CCN(CC(=O)O)CC2)CSCc2cccc(n2)CSC[C@@H](C(N)=O)NC1=O` [GIP-387, DOTA-Ttds-Asp-Ocf-5Clw-Hyp-Glu-leu-[Cys(2Lut)-Thp-Leu-Ile-Cys]-NH2] ({X3-Suc}-D[Phe(2-Cl)][Trp(5-Cl)][Hyp]E[dL]C[Thp]LIC-NH2; linker 7-11 via Pyridine(2,6-diCH2)): the IC50 is 10 to 79.4 nM.

Take `CC(C)C[C@@H]1NC(=O)C2(CCOCC2)NC(=O)[C@@H](NC(=O)[C@@H](CC(C)C)NC(=O)[C@H](CCC(=O)O)NC(=O)[C@@H]2C[C@@H](O)CN2C(=O)[C@H](Cc2c[nH]c3ccc(Cl)cc23)NC(=O)[C@H](Cc2c[nH]c3ccccc23)NC(=O)[C@H](CC(=O)O)NC(=O)CCC(=O)NCCCOCCOCCOCCCNC(=O)CN2CCN(CC(=O)O)CCN(CC(=O)O)CCN(CC(=O)O)CC2)CSCc2cccc(n2)CSC[C@@H](C(N)=O)NC(=O)[C@H](Cc2ccccc2)NC1=O` [GIP-388, DOTA-Ttds-Asp-Trp-5Clw-Hyp-Glu-leu-[Cys(2Lut)-Thp-Leu-Phe-Cys]-NH2] ({X3-Suc}-DW[Trp(5-Cl)][Hyp]E[dL]C[Thp]LFC-NH2; linker 7-11 via Pyridine(2,6-diCH2)): the IC50 was 10 to 79.4 nM.

Turning to `CC(=O)N[C@@H](CC(=O)O)C(=O)N[C@@H](Cc1c[nH]c2ccccc12)C(=O)N[C@@H](Cc1c[nH]c2ccc(Cl)cc12)C(=O)N1C[C@H](O)C[C@H]1C(=O)N[C@@H](CCC(=O)O)C(=O)N[C@H](CC(C)C)C(=O)N[C@H]1CSCc2cccc(n2)CSC[C@@H](C(=O)N[C@H](CCCCNC(=O)CN2CCN(CC(=O)O)CCN(CC(=O)O)CCN(CC(=O)O)CC2)C(N)=O)NC(=O)[C@H](Cc2ccccc2)NC(=O)[C@H](CC(C)C)NC(=O)C2(CCOCC2)NC1=O` [GIP-389, Ac-Asp-Trp-5Clw-Hyp-Glu-leu-[Cys(2Lut)-Thp-Leu-Phe-Cys]-lys (DOTA)-NH2] (Ac-DW[Trp(5-Cl)][Hyp]E[dL]C[Thp]LFC[dK](DOTA)-NH2; linker 7-11 via Pyridine(2,6-diCH2)), the IC50 is 10 to 79.4 nM.

On to `CC[C@H](C)[C@@H]1NC(=O)[C@H](CC(C)C)NC(=O)C2(CCOCC2)NC(=O)[C@@H](NC(=O)[C@@H](CC(C)C)NC(=O)[C@H](CCC(=O)O)NC(=O)[C@@H]2C[C@@H](NC(=O)CN3CCN(CC(=O)O)CCN(CC(=O)O)CCN(CC(=O)O)CC3)CN2C(=O)[C@H](Cc2c[nH]c3ccc(Cl)cc23)NC(=O)[C@H](Cc2ccccc2Cl)NC(=O)[C@H](CC(=O)O)NC(C)=O)CSCc2cccc(n2)CSC[C@@H](C(N)=O)NC1=O` [GIP-390, Ac-Asp-Ocf-5Clw-Tap (DOTA)-Glu-leu-[Cys(2Lut)-Thp-Leu-Ile-Cys]-NH2] (Ac-D[Phe(2-Cl)][Trp(5-Cl)][Pro(trans-4-NH2)](DOTA)E[dL]C[Thp]LIC-NH2; linker 7-11 via Pyridine(2,6-diCH2)), for which the IC50 is 10 to 79.4 nM.

Take `CC(=O)N[C@@H](CC(=O)O)C(=O)N[C@@H](Cc1c[nH]c2ccccc12)C(=O)N[C@@H](Cc1c[nH]c2ccc(Cl)cc12)C(=O)N1C[C@H](NC(=O)CN2CCN(CC(=O)O)CCN(CC(=O)O)CCN(CC(=O)O)CC2)C[C@H]1C(=O)N[C@@H](CCC(=O)O)C(=O)N[C@H](CC(C)C)C(=O)N[C@H]1CSCc2cccc(n2)CSC[C@@H](C(N)=O)NC(=O)[C@H](Cc2ccccc2)NC(=O)[C@H](CC(C)C)NC(=O)C2(CCOCC2)NC1=O` [GIP-391, Ac-Asp-Trp-5Clw-Tap (DOTA)-Glu-leu-[Cys(2Lut)-Thp-Leu-Phe-Cys]-NH2] (Ac-DW[Trp(5-Cl)][Pro(trans-4-NH2)](DOTA)E[dL]C[Thp]LFC-NH2; linker 7-11 via Pyridine(2,6-diCH2)): the IC50 was 10 to 79.4 nM.

Consider `CC[C@H](C)[C@@H]1NC(=O)[C@H](CC(C)C)NC(=O)C2(CCN(C(=O)CN3CCN(CC(=O)O)CCN(CC(=O)O)CCN(CC(=O)O)CC3)CC2)NC(=O)[C@@H](NC(=O)[C@@H](CC(C)C)NC(=O)[C@H](CCC(=O)O)NC(=O)[C@@H]2C[C@@H](O)CN2C(=O)[C@H](Cc2c[nH]c3ccc(Cl)cc23)NC(=O)[C@H](Cc2ccccc2Cl)NC(=O)[C@H](CC(=O)O)NC(C)=O)CSCc2cccc(n2)CSC[C@@H](C(N)=O)NC1=O` [GIP-392, Ac-Asp-Ocf-5Clw-Hyp-Glu-leu-[Cys(2Lut)-Apc(DOTA)-Leu-Ile-Cys]-NH2] (Ac-D[Phe(2-Cl)][Trp(5-Cl)][Hyp]E[dL]C[Api](DOTA)LIC-NH2; linker 7-11 via Pyridine(2,6-diCH2)), for which the IC50 was 10 to 79.4 nM.

In the case of `CC(=O)N[C@@H](CC(=O)O)C(=O)N[C@@H](Cc1c[nH]c2ccccc12)C(=O)N[C@@H](Cc1c[nH]c2ccc(Cl)cc12)C(=O)N1C[C@H](O)C[C@H]1C(=O)N[C@@H](CCC(=O)O)C(=O)N[C@H](CC(C)C)C(=O)N[C@H]1CSCc2cccc(n2)CSC[C@@H](C(N)=O)NC(=O)[C@H](Cc2ccccc2)NC(=O)[C@H](CC(C)C)NC(=O)C2(CCN(C(=O)CN3CCN(CC(=O)O)CCN(CC(=O)O)CCN(CC(=O)O)CC3)CC2)NC1=O` [GIP-393, Ac-Asp-Trp-5Clw-Hyp-Glu-leu-[Cys(2Lut)-Apc(DOTA)-Leu-Phe-Cys]-NH2] (Ac-DW[Trp(5-Cl)][Hyp]E[dL]C[Api](DOTA)LFC-NH2; linker 7-11 via Pyridine(2,6-diCH2)), the IC50 is 10 to 79.4 nM.

As for `CC[C@H](C)[C@@H]1NC(=O)[C@H](CC(C)C)NC(=O)C(C)(C)NC(=O)[C@@H](NC(=O)[C@H](CCC(C)C)NC(=O)[C@H](CCC(=O)O)NC(=O)[C@@H]2C[C@@H](NC(=O)CN3CCN(CC(=O)O)CCN(CC(=O)O)CCN(CC(=O)O)CC3)CN2C(=O)[C@H](Cc2cccc3ccccc23)NC(=O)[C@H](Cc2c[nH]c3ccccc23)NC(=O)[C@H](CC(=O)O)NC(C)=O)CSCc2cccc(c2)CSC[C@@H](C(N)=O)NC1=O` [GIP-394, Ac-Asp-Trp-1Ni-Tap(DOTA)-Glu-Hle-[Cys(3MeBn)-Aib-Leu-Ile-Cys]-NH2] (Ac-DW[1Nal][Pro(trans-4-NH2)](DOTA)E[hLeu]C[Aib]LIC-NH2; linker 7-11 via mXylylene), the IC50 was 10 to 79.4 nM.

As to `CC[C@H](C)[C@@H]1NC(=O)[C@H](CC(C)C)NC(=O)C2(CCOCC2)NC(=O)[C@@H](NC(=O)[C@@H](CC(C)C)NC(=O)[C@H](Cc2ccccc2)NC(=O)[C@@H]2C[C@@H](O)CN2C(=O)[C@H](Cc2c[nH]c3ccc(Cl)cc23)NC(=O)[C@H](Cc2c[nH]c3ccccc23)NC(=O)[C@H](CC(=O)O)NC(C)=O)CSCc2cccc(n2)CSC[C@@H](C(N)=O)NC1=O` [GIP-396, Ac-Asp-Trp-5Clw-Hyp-Phe-leu-[Cys(2Lut)-Thp-Leu-Ile-Cys]-NH2] (Ac-DW[Trp(5-Cl)][Hyp]F[dL]C[Thp]LIC-NH2; linker 7-11 via Pyridine(2,6-diCH2)), the IC50 is 10 to 79.4 nM.
